In patent US20140079717A1, “Compositions and Methods to Prevent Cell Transformation and Cancer Metastasis” (CORNELL UNIVERSITY, priority 2011, published 2014):

What was measured:
[1] = tested on: MDAMB231 cells; experiment: Tumor formation assay in nude mice; assay type: in vivo; details: cells exposed to mitomycin-C before subcutaneous injection into nude mice
Description: FIG. 25. Tumor formation assays were performed in which 5×10^5 mitotically-arrested (using mitomycin-C) MDAMB231 cells (denoted as Mito-C-MDAMB231) expressing either control siRNA (siCont) or tTG siRNAs (denoted as siTG-1 or siTG-2) were subcutaneously injected singly, or combined with 5×10^5 NIH3T3 fibroblasts, into nude mice. As controls, untreated MDAMB231 and NIH3T3 cells were injected into nude mice.
The MDAMB231, U87, MCF10A, and HeLa cell lines were grown in RPMI 1640 medium containing 10% fetal bovine serum, while the NIH3T3 cell line was grown in DMEM medium containing 10% calf serum. Expression constructs were transfected into cells using Lipofectamine, whereas the control and tTG siRNAs were introduced into cells with Lipofectamine 2000. As indicated, cells were incubated with serum-free medium containing combinations of 0.1 μg/ml EGF, 100 μM MDC, 10 μM T101, 10 μM BFA, and 10 μM Exo1. […]
5×10^5 mitotically arrested (using mitomycin-C) MDAMB231 cells stably expressing control or tTG siRNAs were combined with 5×10^5 NIH3T3 fibroblasts and growth factor-reduced Matrigel (BD Biosciences) to achieve 30% Matrigel in the final solution. […] After a month, the animals were sacrificed and the resulting tumors that formed for each experimental condition were excised and counted. […]

[2] = tested on: MDAMB231 cells; experiment: Shedding of MVs by MDAMB231 cells, immunoblot of flotillin-2 and tTG in MV lysates; assay type: cell-based, human; details: MDAMB231 cells treated with inhibitor
From the text: FIG. 39. Serum-starved MDAMB231 cells treated without or with the tTG inhibitors T101 and MDC (left panel), transfected with either control siRNA (siCont) or two distinct tTG siRNAs (siTG-1 and siTG-2) (middle panel), or treated without or with the inhibitors of classical secretion, BFA and Exo1 (right panel), were lysed (WCLs) and the MVs released into the medium by the cells were also collected and lysed. The extracts were immunoblotted with antibodies against tTG, the MV-marker flotillin-2, and the cytosolic-specific-marker IκBα.
For each of the experiments that used MV preparations, the conditioned medium from 5.0×10^6 serum-starved MDAMB231 cells or U87 cells (which is the equivalent of two nearly confluent 150 MM dishes of either of these cell lines) were collected and the MVs isolated from the medium as previously described. […]
The protein concentrations of the whole cell lysates (WCLs) were determined using the Bio-Rad DC protein assay, while the MV lysates were normalized for comparison by isolating them from the conditioned medium of 5.0×10^6 serum-starved MDAMB231 cells or U87 cells for each of the experimental conditions assayed, and then lysing in 250 μl of cell lysis buffer. […] The primary antibodies were detected with horseradish peroxidase-conjugated secondary antibodies (Amersham Biosciences) followed by exposure to ECL reagent.

[3] = tested on: MDAMB231 cells; experiment: MV formation by MDAMB231 cells, immunofluorescence with tTG antibody; assay type: cell-based, human; details: serum-starved MDAMB231 cells treated with inhibitor
Description: FIG. 38. Serum-starved MDAMB231 cells treated without or with T101, MDC, BFA, or Exo1, were immuno-stained with a tTG antibody. Shown are representative images of the cells exposed to the various inhibitors. Cells forming MVs are denoted with arrows.
(§1) The MDAMB231, U87, MCF10A, and HeLa cell lines were grown in RPMI 1640 medium containing 10% fetal bovine serum, while the NIH3T3 cell line was grown in DMEM medium containing 10% calf serum. Expression constructs were transfected into cells using Lipofectamine, whereas the control and tTG siRNAs were introduced into cells with Lipofectamine 2000. As indicated, cells were incubated with serum-free medium containing combinations of 0.1 μg/ml EGF, 100 μM MDC, 10 μM T101, 10 μM BFA, and 10 μM Exo1. To mitotically arrest MDAMB231 cells, plates of cells were treated with 10 μg/ml mitomycin-C for 2 hours, before rinsing the solution away and allowing the cells to recover in growth medium (RPMI-1640 medium containing 10% FBS) for a day.
Cells were fixed with 3.7% paraformaldehyde and then some samples were permeabilized with phosphate-buffered saline (PBS) containing 0.1% Triton X-100. Permeabilized and non-permeabilized samples were incubated with a tTG antibody, and then incubated with Oregon green 488-conjugated secondary antibody. Rhodamine-conjugated phalloidin was used to stain actin and DAPI was used to stain nuclei. The cells were visualized by fluorescent microscopy and the images were captured and processed using IPLABS.

[4] = tested on: NIH3T3 fibroblasts stably overexpressing Myc-tagged tTG; experiment: Cell death assay on NIH3T3 fibroblasts stably overexpressing Myc-tTG; assay type: cell-based; details: serum-free medium, cells treated with MDC
Description: FIG. 23. Cell death assays were performed on the NIH3T3 stable cell lines maintained in serum-free medium that was treated with T101, MDC, or 2% CS-medium, or was untreated. Data represents the mean±s.d. from at least three independent experiments.
NIH3T3 cells or MCF10A cells were plated in each well of a 6-well dish and then cultured in medium containing 2% CS or serum-free medium supplemented without or with MVs derived from 5.0×10^6 MDAMB231 cells or U87 cells, and without or with MDC or T101, as indicated. Two days later the cultures were fixed and stained with DAPI for viewing by fluorescence microscopy. Cells undergoing apoptosis were identified by nuclear condensation or blebbing and the percentage of cell death was determined by calculating the ratio of apoptotic to total cells for each condition. These experiments were conducted at least three times and the results from each experiment were averaged together and graphed.

[5] = target: T1, tTG (Homo sapiens, UniProt P21980); experiment: Transamidation activity of intact MDAMB231 cell-derived MVs (incorporation of BPA into casein); assay type: biochemical; details: pre-treatment of intact MDAMB231 cell-derived MVs with inhibitor
T1 construct: endogenous in cells; host or cells: microvesicles shed by serum-starved MDAMB231 (and U87) cells
T1 sequence (P21980 1-687): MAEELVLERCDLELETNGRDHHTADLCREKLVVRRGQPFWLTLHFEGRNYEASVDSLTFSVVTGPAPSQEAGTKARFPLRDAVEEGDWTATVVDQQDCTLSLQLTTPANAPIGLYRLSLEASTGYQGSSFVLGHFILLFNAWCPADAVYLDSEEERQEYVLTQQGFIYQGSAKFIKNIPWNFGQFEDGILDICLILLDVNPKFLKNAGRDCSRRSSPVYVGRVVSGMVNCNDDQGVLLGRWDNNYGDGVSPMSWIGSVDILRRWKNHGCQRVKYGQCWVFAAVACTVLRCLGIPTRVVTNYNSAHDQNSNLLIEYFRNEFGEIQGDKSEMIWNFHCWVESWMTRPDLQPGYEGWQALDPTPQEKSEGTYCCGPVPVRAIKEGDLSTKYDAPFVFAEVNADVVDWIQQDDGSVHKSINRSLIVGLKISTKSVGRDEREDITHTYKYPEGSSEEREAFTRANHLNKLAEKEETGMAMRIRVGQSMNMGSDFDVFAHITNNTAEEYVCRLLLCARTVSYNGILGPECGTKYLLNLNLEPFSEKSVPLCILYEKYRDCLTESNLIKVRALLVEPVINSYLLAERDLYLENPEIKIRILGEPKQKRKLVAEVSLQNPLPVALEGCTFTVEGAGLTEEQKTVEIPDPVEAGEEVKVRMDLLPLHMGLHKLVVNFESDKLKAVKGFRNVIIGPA
Description: FIG. 17. Whole cell lysates (WCLs) of serum-starved MDAMB231 cells, as well as intact MVs generated by these cells treated without or with the tTG inhibitors T101 (cell-impermeable) or MDC (cell-permeable), were assayed for transamidation activity as readout by the incorporation of BPA into casein. The samples were then immunoblotted with antibodies against tTG, flotillin-2, and IκBα.
The transamidation activity in whole cell extracts was readout by the incorporation of BPA into lysate proteins as previously described, whereas the transamidation activity of recombinant tTG (0.1 μM) exposed to increasing concentrations of T101 was determined using a spectrophotometric assay. The transamidation activity associated with MVs was readout by incubating equal amounts (75 μl) of each MV sample in a buffer containing 40 mM N′N-dimethyl casein, 2 mM BPA, 40 mM CaCl2, and 40 mM dithiothreitol for 15 minutes. The reaction was stopped by the addition of Laemmli sample buffer followed by boiling. The reactions were then resolved by SDS-PAGE and the proteins transferred to polyvinylidene difluoride membranes. […]

[6] = tested on: HeLa cervical carcinoma cells; experiment: MV formation in HeLa cells, rhodamine-phalloidin labeling; assay type: cell-based, human; details: serum-starved HeLa cells, EGF stimulation
Description: FIG. 2. Quantification of MV production by various cell lines cultured under serum-starved or EGF-stimulated conditions. Cells generating MVs were detected by labeling the samples with rhodamine-conjugated phalloidin. The data shown represents the mean±s.d. from three independent experiments.
FIG. 3. Images of cells from the experiment performed in FIG. 2. Some of the MVs are denoted with arrows.
as §1

[7] = tested on: NIH3T3 fibroblasts; experiment: Anchorage-independent growth assay (soft agar) on NIH3T3 fibroblasts incubated with MVs; assay type: cell-based; details: NIH3T3 cells, U87 cell-derived MVs treated with AG1478
Description: FIG. 21. Anchorage-independent growth assays were performed on fibroblasts incubated with MDAMB231 cell-derived MVs treated without or with T101, the RGD-peptide, or the control RGE-peptide. Data represents the mean±s.d. from at least three independent experiments.
FIG. 34. MDAMB231 cell-derived MVs transform recipient MCF10A mammary epithelial cells. Anchorage-independent growth assays were performed on NIH3T3 fibroblasts incubated with U87 cell-derived MVs treated without or with the EGF receptor inhibitor AG1478. The culturing medium (including the MVs, T101, and AG1478) for the soft agar assays performed was replenished every third day for 12 days, at which time the colonies that formed were counted. […]
Parental NIH3T3 cells or MCF10A cells incubated without or with MVs derived from 5.0×10^6 MDAMB231 cells or U87 cells, or NIH3T3 cells stably overexpressing the vector-control, wild-type tTG, or Cdc42 F28L, were plated at a density of 7×10^3 cells/ml in medium containing 0.3% agarose, without or with various inhibitors as indicated, onto underlays composed of growth medium containing 0.6% agarose in six-well dishes. The soft agar cultures were re-fed (including the addition of freshly prepared MVs and treatments with various inhibitors as indicated) every third day for 12 days, at which time the colonies that formed were counted. […]

Row | Compound | effect on shedding of MVs (flotillin-2 and tTG in isolated MVs) [2] | effect on MV formation [3] | other results
1 | CO[C@@]12[C@H](COC(N)=O)C3=C(C(=O)C(C)=C(N)C3=O)N1C[C@@H]1N[C@@H]12 [mitomycin-C] | – | – | ability of MDAMB231 cells to form tumors [1]: inhibited
2 | COC(=O)c1ccccc1NC(=O)c1ccc(F)cc1 [ExoI] | nor was it affected | not sensitive | –
3 | CN(C)c1cccc2c(S(=O)(=O)NCCCCCN)cccc12 [MDC, monodansylcadaverine] | – | had no effect | resistance to serum-deprivation-induced apoptosis [4]: ablated; crosslinking activity associated with MVs (levels of BPA-labeled casein) [5]: greatly diminished
4 | C[C@H]1CCC/C=C/[C@@H]2C[C@H](O)C[C@H]2[C@H](O)/C=C/C(=O)O1 [BFA, brefelden A] | nor was it affected | not sensitive | –
5 | epidermal growth factor [EGF, growth factor used to stimulate cells] | – | – | MV formation [6]: induced
6 | COc1cc2ncnc(Nc3cccc(Cl)c3)c2cc1OC [AG1478] | – | – | anchorage-independent growth advantage imparted by U87 cell-derived MVs [7]: insensitive
